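Tested at 5 concentrations; 48 h exposure; 96-well plates; endpoints linearly interpolated, else capped at highest concentration. GI50 = concentration required for 50% inhibition of growth.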 Active and inactive are the calls of the source. Cut-off read from the data, not from the text of the source: active = GI50 up to about 1.1 µM and inactive = higher.
Legend:
Assay in all cases: NCI-60 cell line screen, 48 h
MDA-N = tested on: MDA-N
A549 = tested on: A549
M14 = tested on: M14
HCC 2998 = tested on: HCC 2998
MOLT-4 = tested on: MOLT-4
SK-MEL-2 = tested on: SK-MEL-2
NCI-H226 = tested on: NCI-H226
OVCAR-3 = tested on: OVCAR-3
OVCAR-8 = tested on: OVCAR-8
HCT-116 = tested on: HCT-116
SK-MEL-28 = tested on: SK-MEL-28
DU-145 = tested on: DU-145
IGROV-1 = tested on: IGROV-1
PC-3 = tested on: PC-3
Malme-3M = tested on: Malme-3M
HCT-15 = tested on: HCT-15
SNB-75 = tested on: SNB-75
RXF 393 = tested on: RXF 393
SF-268 = tested on: SF-268

SMILES | GI50 (MDA-N) | GI50 (A549) | GI50 (M14) | GI50 (HCC 2998) | GI50 (MOLT-4) | GI50 (SK-MEL-2) | GI50 (NCI-H226) | GI50 (OVCAR-3) | GI50 (OVCAR-8) | GI50 (HCT-116) | GI50 (SK-MEL-28) | GI50 (DU-145) | GI50 (IGROV-1) | GI50 (PC-3) | GI50 (Malme-3M) | GI50 (HCT-15) [µM] | GI50 (SNB-75) | GI50 (RXF 393) | GI50 (SF-268)
CC#CC(O)(C(=O)OC1CCCN(C)C1)C1=CC=CCC1 (stereo not given) | > 100 µM (inactive) | > 100 µM (inactive) | > 100 µM (inactive) | > 100 µM (inactive) | > 100 µM (inactive) | > 100 µM (inactive) | > 100 µM (inactive) | > 100 µM (inactive) | > 100 µM (inactive) | > 100 µM (inactive) | > 100 µM (inactive) | > 100 µM (inactive) | > 100 µM (inactive) | > 100 µM (inactive) | > 100 µM (inactive) | > 100 | > 100 µM (inactive) | > 100 µM (inactive) | > 100 µM (inactive)
COc1cc2cc3c4c(cc(OC)c(OC)c4c2cc1OC)CCN3C(=O)N(C)C |  | > 100 µM (inactive) | > 10 µM (inactive) | > 100 µM (inactive) | > 100 µM (inactive) | > 100 µM (inactive) | 56.2 µM (inactive) | > 100 µM (inactive) | > 100 µM (inactive) | > 100 µM (inactive) | 27.9 µM (inactive) |  | > 100 µM (inactive) |  | 59.3 µM (inactive) | > 100 | 19.5 µM (inactive) | > 100 µM (inactive) | > 100 µM (inactive)
N#Cc1[nH]c(=O)n(-c2ccc([N+](=O)[O-])cc2)c1N | > 10 µM (inactive) | > 10 µM (inactive) | > 10 µM (inactive) | > 10 µM (inactive) | > 10 µM (inactive) | > 10 µM (inactive) | > 10 µM (inactive) | > 10 µM (inactive) | > 10 µM (inactive) | > 10 µM (inactive) | > 10 µM (inactive) | > 10 µM (inactive) | > 10 µM (inactive) | > 10 µM (inactive) | > 10 µM (inactive) | > 10 | > 10 µM (inactive) | > 10 µM (inactive) | > 10 µM (inactive)
NC(=O)c1nnsc1NN=O | > 100 µM (inactive) | > 100 µM (inactive) | > 100 µM (inactive) | > 100 µM (inactive) | > 100 µM (inactive) | > 100 µM (inactive) | > 100 µM (inactive) |  | > 100 µM (inactive) | > 100 µM (inactive) | > 100 µM (inactive) | > 100 µM (inactive) | > 100 µM (inactive) | > 100 µM (inactive) | > 100 µM (inactive) | > 100 | 94.8 µM (inactive) | > 100 µM (inactive) | > 100 µM (inactive)
Cn1c(=O)c(C2c3ccccc3Oc3c2c(=O)n(C)c2ccccc32)c(O)c2ccccc21 (stereo not given) |  | 72.6 µM (inactive) | 60 µM (inactive) | 44.3 µM (inactive) | 39.4 µM (inactive) | 61.7 µM (inactive) | 46 µM (inactive) | 52 µM (inactive) | > 100 µM (inactive) | 43.2 µM (inactive) | 86.9 µM (inactive) |  | 59.2 µM (inactive) |  | 73.5 µM (inactive) | 32.4 | 40.9 µM (inactive) | 63 µM (inactive) | 66.4 µM (inactive)
COc1cc(OC(=O)c2c(O)cc(O)c(O)c2C)cc(C)c1C(=O)Oc1cc(C)c(C(=O)O)c(O)c1 |  | > 100 µM (inactive) | > 100 µM (inactive) | > 100 µM (inactive) | > 100 µM (inactive) | > 100 µM (inactive) | > 100 µM (inactive) | > 100 µM (inactive) | > 100 µM (inactive) | > 100 µM (inactive) | > 100 µM (inactive) |  | > 100 µM (inactive) |  | > 100 µM (inactive) | > 100 | > 100 µM (inactive) | > 100 µM (inactive) | > 100 µM (inactive)
O=C(/C=C/c1ccccc1F)c1ccc(Cl)c(Cl)c1 |  | 64 µM (inactive) | 32.4 µM (inactive) | 24.7 µM (inactive) | 27.4 µM (inactive) | > 75 µM (inactive) | > 100 µM (inactive) | > 44.8 µM (inactive) | 33 µM (inactive) | 16.3 µM (inactive) | > 53.1 µM (inactive) |  | 34.3 µM (inactive) |  | > 92.9 µM (inactive) | 37.1 | 39.3 µM (inactive) | 21.9 µM (inactive) | 38.3 µM (inactive)
O=C1/C(=C/c2ccc(Cl)cc2)N=C(c2ccccc2)N1c1ccc(S(=O)(=O)Nc2nccs2)cc1 | 26 µM (inactive) | 52.4 µM (inactive) | 47.5 µM (inactive) | 18.9 µM (inactive) | 33.2 µM (inactive) | 16 µM (inactive) | 52.1 µM (inactive) | 30.5 µM (inactive) |  | 33.5 µM (inactive) | 30.4 µM (inactive) | > 100 µM (inactive) |  | 31.6 µM (inactive) | 30.9 µM (inactive) | 37.5 | 39.5 µM (inactive) | 33.4 µM (inactive) | 50.8 µM (inactive)
COc1ccc(S(=O)(=O)Nc2ccc(-c3csc(N4C(=O)/C(=C/c5ccccc5)N=C4c4ccccc4)n3)cc2)cc1Cl | 38.7 µM (inactive) | 35.1 µM (inactive) | 24.8 µM (inactive) |  | 25.1 µM (inactive) | 25.9 µM (inactive) | 33.2 µM (inactive) | 36.2 µM (inactive) | 31.5 µM (inactive) | 35.3 µM (inactive) | 57.4 µM (inactive) | 27.8 µM (inactive) | 38.6 µM (inactive) | 25.4 µM (inactive) | 38.3 µM (inactive) | 20.2 | 29.2 µM (inactive) | 24.4 µM (inactive) | 31.4 µM (inactive)
CNC(=O)c1nn[nH]c1O | > 100 µM (inactive) | > 100 µM (inactive) | > 100 µM (inactive) | > 100 µM (inactive) | > 100 µM (inactive) | > 100 µM (inactive) | > 100 µM (inactive) |  | > 100 µM (inactive) | > 100 µM (inactive) | > 100 µM (inactive) | > 100 µM (inactive) | > 100 µM (inactive) | > 100 µM (inactive) | > 100 µM (inactive) | > 100 | 74.1 µM (inactive) | > 100 µM (inactive) | > 100 µM (inactive)
CC1CCC23COC(=O)C2C(O)CCC3C1(C)CC(O)c1ccoc1 (stereo not given) |  | > 100 µM (inactive) | > 100 µM (inactive) | > 100 µM (inactive) | > 100 µM (inactive) | > 100 µM (inactive) | > 100 µM (inactive) | > 100 µM (inactive) | > 100 µM (inactive) | > 100 µM (inactive) | > 100 µM (inactive) |  | > 100 µM (inactive) |  | > 100 µM (inactive) | > 100 | 41.3 µM (inactive) | > 100 µM (inactive) | > 100 µM (inactive)
COc1cc(C2Oc3cc(-c4oc5cc(O)cc(O)c5c(=O)c4O)ccc3OC2CO)ccc1O (stereo not given) [DEHYDROSILYLBIN] |  | 9.14 µM (inactive) | 12.4 µM (inactive) | 24.8 µM (inactive) | 3.9 µM (inactive) | 7.38 µM (inactive) | 8.51 µM (inactive) | 21.5 µM (inactive) | 30.1 µM (inactive) | 4.71 µM (inactive) | 10.1 µM (inactive) |  | 10.9 µM (inactive) |  | 22.8 µM (inactive) | 9.31 | 5 µM (inactive) | 2.31 µM (inactive) | 7.46 µM (inactive)

— ChEMBL document CHEMBL1201862, “PubChem BioAssay data set” (2004)
